Test results: the NIST ThermoML archive (doi:10.1021/je5005752)

Assay: xn = mol fraction of the nth substance listed
Settings: 101 kPa, Liquid; for viscosity: Falling or rolling sphere viscometry; for mass density: Vibrating tube method

CCCC(=O)OCC [ethyl butanoate] + CCCCCCO
Settings	mass density [kg/m3]	viscosity [mPa·s]
288.15 K, x1 = 0.0997	828.32	4.176
288.15 K, x1 = 0.1998	834.25	2.965
288.15 K, x1 = 0.3002	840.39	2.214
288.15 K, x1 = 0.4	846.47	1.735
288.15 K, x1 = 0.5	852.62	1.399
288.15 K, x1 = 0.5998	858.84	1.17
288.15 K, x1 = 0.6999	865.11	0.9966
288.15 K, x1 = 0.7999	871.43	0.8726
288.15 K, x1 = 0.8998	877.77	0.7818
288.15 K, x1 = 1	884.16	0.7224
293.15 K, x1 = 0.0997	824.57	3.6
293.15 K, x1 = 0.1998	830.32	2.6
293.15 K, x1 = 0.3002	836.29	1.97
293.15 K, x1 = 0.4	842.19	1.563
293.15 K, x1 = 0.5	848.18	1.274
293.15 K, x1 = 0.5998	854.23	1.075
293.15 K, x1 = 0.6999	860.32	0.9233
293.15 K, x1 = 0.7999	866.48	0.8142
293.15 K, x1 = 0.8998	872.65	0.7339
293.15 K, x1 = 1	878.9	0.6808
298.15 K, x1 = 0.0997	820.8	3.124
298.15 K, x1 = 0.1998	826.39	2.295
298.15 K, x1 = 0.3002	832.17	1.762
298.15 K, x1 = 0.4	837.9	1.414
298.15 K, x1 = 0.5	843.72	1.166
298.15 K, x1 = 0.5998	849.59	0.991
298.15 K, x1 = 0.6999	855.52	0.857
298.15 K, x1 = 0.7999	861.51	0.761
298.15 K, x1 = 0.8998	867.52	0.6898
298.15 K, x1 = 1	873.62	0.643
303.15 K, x1 = 0.0997	817.02	2.731
303.15 K, x1 = 0.1998	822.43	2.038
303.15 K, x1 = 0.3002	828.03	1.585
303.15 K, x1 = 0.4	833.6	1.286
303.15 K, x1 = 0.5	839.24	1.069
303.15 K, x1 = 0.5998	844.95	0.9185
303.15 K, x1 = 0.6999	850.71	0.7979
303.15 K, x1 = 0.7999	856.53	0.7129
303.15 K, x1 = 0.8998	862.38	0.6492
303.15 K, x1 = 1	868.33	0.6072
308.15 K, x1 = 0.0997	813.22	2.403
308.15 K, x1 = 0.1998	818.46	1.819
308.15 K, x1 = 0.3002	823.88	1.433
308.15 K, x1 = 0.4	829.27	1.174
308.15 K, x1 = 0.5	834.75	0.9852
308.15 K, x1 = 0.5998	840.28	0.8501
308.15 K, x1 = 0.6999	845.88	0.7452
308.15 K, x1 = 0.7999	851.54	0.6686
308.15 K, x1 = 0.8998	857.23	0.6113
308.15 K, x1 = 1	863.02	0.5736
313.15 K, x1 = 0.0997	809.4	2.124
313.15 K, x1 = 0.1998	814.46	1.631
313.15 K, x1 = 0.3002	819.7	1.3
313.15 K, x1 = 0.4	824.92	1.076
313.15 K, x1 = 0.5	830.23	0.9099
313.15 K, x1 = 0.5998	835.6	0.7898
313.15 K, x1 = 0.6999	841.02	0.6964
313.15 K, x1 = 0.7999	846.52	0.6277
313.15 K, x1 = 0.8998	852.06	0.5762
313.15 K, x1 = 1	857.7	0.5425
318.15 K, x1 = 0.0997	805.54	1.887
318.15 K, x1 = 0.1998	810.43	1.469
318.15 K, x1 = 0.3002	815.5	1.184
318.15 K, x1 = 0.4	820.55	0.9878
318.15 K, x1 = 0.5	825.69	0.8422
318.15 K, x1 = 0.5998	830.89	0.7355
318.15 K, x1 = 0.6999	836.15	0.652
318.15 K, x1 = 0.7999	841.48	0.5903
318.15 K, x1 = 0.8998	846.86	0.544
318.15 K, x1 = 1	852.36	0.5132
323.15 K, x1 = 0.0997	801.66	1.7
323.15 K, x1 = 0.1998	806.38	1.332
323.15 K, x1 = 0.3002	811.27	1.089
323.15 K, x1 = 0.4	816.15	0.9186
323.15 K, x1 = 0.5	821.13	0.788
323.15 K, x1 = 0.5998	826.16	0.6919
323.15 K, x1 = 0.6999	831.25	0.6147
323.15 K, x1 = 0.7999	836.43	0.5594
323.15 K, x1 = 0.8998	841.64	0.5176
323.15 K, x1 = 1	847	0.487

CCCC(=O)OCC [ethyl butanoate] + CC(C)CO
Settings	mass density [kg/m3]	viscosity [mPa·s]
288.15 K, x1 = 0.1	816.01	2.899
288.15 K, x1 = 0.2001	825.5	2
288.15 K, x1 = 0.3001	834.2	1.516
288.15 K, x1 = 0.3999	842.57	1.24
288.15 K, x1 = 0.5	850.43	1.057
288.15 K, x1 = 0.5999	857.77	0.9319
288.15 K, x1 = 0.7001	864.75	0.8287
288.15 K, x1 = 0.8001	871.45	0.785
288.15 K, x1 = 0.8997	877.93	0.7449
288.15 K, x1 = 1	884.16	0.7224
293.15 K, x1 = 0.1	811.92	2.51
293.15 K, x1 = 0.2001	821.21	1.768
293.15 K, x1 = 0.3001	829.72	1.363
293.15 K, x1 = 0.3999	837.92	1.129
293.15 K, x1 = 0.5	845.64	0.9727
293.15 K, x1 = 0.5999	852.86	0.8638
293.15 K, x1 = 0.7001	859.73	0.7883
293.15 K, x1 = 0.8001	866.33	0.7356
293.15 K, x1 = 0.8997	872.73	0.7006
293.15 K, x1 = 1	878.9	0.6808
298.15 K, x1 = 0.1	807.82	2.19
298.15 K, x1 = 0.2001	816.89	1.571
298.15 K, x1 = 0.3001	825.21	1.233
298.15 K, x1 = 0.3999	833.26	1.032
298.15 K, x1 = 0.5	840.84	0.8977
298.15 K, x1 = 0.5999	847.92	0.8022
298.15 K, x1 = 0.7001	854.69	0.7366
298.15 K, x1 = 0.8001	861.2	0.6907
298.15 K, x1 = 0.8997	867.52	0.6599
298.15 K, x1 = 1	873.62	0.643
303.15 K, x1 = 0.1	803.67	1.92
303.15 K, x1 = 0.2001	812.54	1.406
303.15 K, x1 = 0.3001	820.68	1.118
303.15 K, x1 = 0.3999	828.56	0.9462
303.15 K, x1 = 0.5	836	0.8309
303.15 K, x1 = 0.5999	842.97	0.7472
303.15 K, x1 = 0.7001	849.63	0.6895
303.15 K, x1 = 0.8001	856.05	0.6488
303.15 K, x1 = 0.8997	862.29	0.6217
303.15 K, x1 = 1	868.33	0.6072
308.15 K, x1 = 0.1	799.49	1.693
308.15 K, x1 = 0.2001	808.15	1.262
308.15 K, x1 = 0.3001	816.12	1.018
308.15 K, x1 = 0.3999	823.84	0.8702
308.15 K, x1 = 0.5	831.14	0.7709
308.15 K, x1 = 0.5999	837.99	0.6967
308.15 K, x1 = 0.7001	844.55	0.6458
308.15 K, x1 = 0.8001	850.88	0.6101
308.15 K, x1 = 0.8997	857.04	0.5862
308.15 K, x1 = 1	863.02	0.5736
313.15 K, x1 = 0.1	795.27	1.501
313.15 K, x1 = 0.2001	803.72	1.137
313.15 K, x1 = 0.3001	811.51	0.9295
313.15 K, x1 = 0.3999	819.09	0.8021
313.15 K, x1 = 0.5	826.25	0.7166
313.15 K, x1 = 0.5999	832.98	0.6507
313.15 K, x1 = 0.7001	839.44	0.6059
313.15 K, x1 = 0.8001	845.69	0.5742
313.15 K, x1 = 0.8997	851.78	0.5531
313.15 K, x1 = 1	857.7	0.5425
318.15 K, x1 = 0.1	791	1.337
318.15 K, x1 = 0.2001	799.25	1.029
318.15 K, x1 = 0.3001	806.87	0.8513
318.15 K, x1 = 0.3999	814.29	0.7413
318.15 K, x1 = 0.5	821.33	0.6676
318.15 K, x1 = 0.5999	827.95	0.6086
318.15 K, x1 = 0.7001	834.31	0.569
318.15 K, x1 = 0.8001	840.47	0.5409
318.15 K, x1 = 0.8997	846.5	0.5224
318.15 K, x1 = 1	852.36	0.5132
323.15 K, x1 = 0.1	786.67	1.219
323.15 K, x1 = 0.2001	794.73	0.9403
323.15 K, x1 = 0.3001	802.18	0.785
323.15 K, x1 = 0.3999	809.46	0.6914
323.15 K, x1 = 0.5	816.36	0.6257
323.15 K, x1 = 0.5999	822.87	0.5716
323.15 K, x1 = 0.7001	829.14	0.5382
323.15 K, x1 = 0.8001	835.23	0.5126
323.15 K, x1 = 0.8997	841.18	0.4958
323.15 K, x1 = 1	847	0.487
